In patent US6559135B2, “Per-(3-6-anhydro)cyclodextrins derivatives, preparation and use thereof for separating ions” (Commissariat a l'Energie Atomique, priority 2000, dated 2003):

Columns and labels:
Type in all cases: binding
[1] = Complexation of Lu3+ followed by proton NMR; conditions: 1 mmol/l derivative, 4 mmol/l cation, aqueous solution
Method: (§1) Each complex is prepared by adding 4 mmol/l of the tested cation to 500 μl of an aqueous solution containing 1 mmol/l of the product from Example 1. The following cations were tested: Lu^3+, La^3+, Dy^3+, Eu^3+ and Co^2+.
(§2) The resulting complexes were then characterised by proton nuclear magnetic resonance spectrometry.

[2] = Complexation of Eu3+ followed by proton NMR; conditions: 1 mmol/l derivative, 4 mmol/l cation, aqueous solution
Method: as §1, §2

[3] = Complexation of La3+ followed by proton NMR; conditions: 1 mmol/l derivative, 4 mmol/l cation, aqueous solution
Method: as §1, §2

[4] = Competition with EDTA in complexing Dy3+, proton NMR; conditions: 1 mmol/l derivative, 4 mmol/l cation and EDTA (large excess of EDTA), aqueous solution
Method: (§3) In this example, experiments were carried out to compare the derivative from Example 1 and ethylene diamine tetra acetate (EDTA) in complexing Dy^3+, Eu^3+ and Co^2+ ions, in order to get an idea of the force of the complexes prepared in Example 2.
(§4) With this in mind, 4 mmol/l of the tested cation and EDTA were added to 50 μl of an aqueous solution containing 1 mmol/l of the derivative from Example 1. The resulting products were than characterised by proton NMR spectrometry.

[5] = Competition with EDTA in complexing Co2+, proton NMR; conditions: 1 mmol/l derivative, 4 mmol/l cation and EDTA (large excess of EDTA), aqueous solution
Method: as §3, §4

[6] = Competition with EDTA in complexing Eu3+, proton NMR; conditions: 1 mmol/l derivative, 4 mmol/l cation and EDTA (large excess of EDTA), aqueous solution
Method: as §3, §4

[7] = Complexation of physiological cation Ca2+, proton NMR; conditions: same procedure as Example 2: 1 mmol/l derivative, 4 mmol/l cation
Method: as §1
(§5) In this example, the complexation properties of the derivative from Example 1 were tested vis à vis physiological cations: calcium, sodium and potassium, all of which are required in the development of living organisms.
(§6) The same procedure was used as given in Example 2, and the resulting products were characterised by proton NMR spectrometry.

[8] = Complexation of Dy3+ followed by proton NMR; conditions: 1 mmol/l derivative, 4 mmol/l cation, aqueous solution
Method: as §1, §2

[9] = Complexation of Co2+ followed by proton NMR; conditions: 1 mmol/l derivative, 4 mmol/l cation, aqueous solution
Method: as §1, §2

[10] = Complexation of physiological cation K+, proton NMR; conditions: same procedure as Example 2: 1 mmol/l derivative, 4 mmol/l cation
Method: as §1, §5, §6

[11] = Complexation of physiological cation Na+, proton NMR; conditions: same procedure as Example 2: 1 mmol/l derivative, 4 mmol/l cation
Method: as §1, §5, §6

## Hexakis-(3,6-anhydro-2-O-carboxymethyl)-cyclomaltohexaose [Example 1]
[1]
  interaction with Lu^3+ (change of proton NMR spectrum): several stoichiometrically different complexes co-exist in solution
[2]
  interaction with Eu^3+ (change of proton NMR spectrum): very strong interaction
[3]
  interaction with La^3+ (change of proton NMR spectrum): H6 and H6′ protons located on the anhydro bridge can still be observed
[4]
  strength of Dy^3+ complex compared to EDTA: complexes the cations more strongly than EDTA
[5]
  strength of Co^2+ complex compared to EDTA: complexes the cations more strongly than EDTA
[6]
  strength of Eu^3+ complex compared to EDTA: complexes the cations more strongly than EDTA
[7]
  effect of Ca^2+ on proton NMR peaks of the derivative (complexation): hardly affected
[8]
  interaction with Dy^3+ (change of proton NMR spectrum): very strong interaction
[9]
  interaction with Co^2+ (change of proton NMR spectrum): very strong interaction
[10]
  effect of K^+ on proton NMR peaks of the derivative (complexation): hardly affected
[11]
  effect of Na^+ on proton NMR peaks of the derivative (complexation): hardly affected
